Where two headings read alike, the source gives them in different places. Bridge positions count the residues as written; N and C are the ends. Square brackets hold non-standard residues; d marks the D form. Peptide text beside a SMILES is read from it. * marks the point of attachment. Ileψ(thiazoline)Cys = CC[C@H](C)[C@H](N)C1=N[C@H](C(=O)*)CS1; dOrn = NCCC[C@@H](N)C(=O)O

For data set [1] the following is noted: with soya-lecithin, n-octanol-phosphate buffer; cited from earlier work.
For data set [2] the following is noted: oral oil-based paste, free access to food, three of six animals; cited from earlier work.
Data set [3] concerns paw edema by carrageenin. Particulars: topical 1% ointment, rats; cited from earlier work.
In data set [4] the test system is rat skin. The conditions noted are these: applied to rat skin; cited from earlier work.
For data set [5], the system named is mice. Briefly: Alcohol preference in mice (acceptance and 14 day preference test). Particulars: d-phenylalanine 500 mg/kg/day 18 days, hydrocinnamic acid 25 micrograms icv. It is filed as in vivo.
Data set [6] relates to cats. The conditions noted are these: peptide 0.35 mg/kg and D-phenylalanine 10 mg/kg; cited from earlier work.
The subject of data set [7] is rats. Particulars: morphine 5 mg/kg, D-phenylalanine 100 mg/kg; similar degree; cited from earlier work.
The test system of data set [8] is enkephalinase. Particulars: cited from earlier work; for plasma EKA / CSF EKA: human sufferers.
Data set [9] concerns mice. Particulars: cited from earlier work.
The conditions of data set [10]: in vivo; cited from earlier work.
For data set [11] the following is noted: 250 mg/kg, reversed by naloxone; cited from earlier work.
The test system of data set [12] is nucleus accumbens enkephalins. Particulars: administered into the nucleus accumbens; cited from earlier work.
Data set [13] concerns rats. Particulars: injections in rats; cited from earlier work.
Data set [14] relates to patients receiving opiates for chronic non-malignant pain. Particulars: concurrent treatment, author's clinical experience; cited from earlier work.
The target of data set [15] is T1, CYP2D6 (Homo sapiens, UniProt P10635).
T1 construct: host or cells: patients on methadone (in vivo)
The conditions noted are these: extensive but not poor metabolizers of debrisoquine/sparteine; cited from earlier work.

The conditions of data set [16]: rats; cited from earlier work.
In data set [17] the test system is rat caudate nucleus synaptosomal preparation. Particulars: cited from earlier work.
The subject of data set [18] is methadone patients. The data set can be described thus: Compliance with Trexan after rapid detoxification of methadone patients. It is filed as in vivo, human. The conditions noted are these: P<0.0001. From the text:
It may also be interesting too further test this hypothesis with the sublingual combination of the partial opiate mu receptor agonist buprenorphrine.

Data set [19] relates to rats. The conditions noted are these: naloxone 0.1 mg/kg; species not stated; cited from earlier work.
Data set [20] relates to obese subjects genotyped for DRD2. The data set can be described thus: Chromium picolinate body composition as a function of DRD2 genotype. It is filed as in vivo, human. The conditions noted are these: subjects possessing a DRD2 A1 allele. As for the experimental part: A Case Study: Chromium and Dopamine Genes. The inventors embarked on a study with chromium picolinate to test out the principles of nutrigenomics. In this study they genotyped obese subjects for the dopamine D2 receptors gene (DRD2). The subjects were assessed for scale weight and for percent body fat. The subjects were divided into matched placebo and chromium picolinate (CrP) groups. […] Moreover, the inventors propose for the first time that mixed effects now observed with CrP administration in terms of body composition, may be resolved by typing the patient via DRD2 genotyping prior to treatment with chromium salts.

The test system of data set [21] is Over-Eating. The conditions noted are these: after six months, p < 0.001 between groups; cited from earlier work.
Data set [22] deals with Over-Eating. The conditions noted are these: cited from earlier work.
The test system of data set [23] is Over-Eating. The conditions noted are these: 400 mcg, cited from earlier work.
Data set [24] concerns obese women. The conditions noted are these: cited from earlier work.
For data set [25], the system named is intracranial self-stimulation. The conditions noted are these: nucleus accumbens microinjections; cited from earlier work.
The test system of data set [26] is brain dopamine and serotonin flux. The conditions noted are these: intravenously, cited from earlier work.
Data set [27] deals with release of serotonin in the lateral hypothalamus. Particulars: systemic administration, long lasting and dose dependent; cited from earlier work.
Data set [28] has as its system patients with CRPS1. The conditions noted are these: 3 of 5 patients; unchanged in the other 2; cited from earlier work.
Data set [29] deals with SH-SY5Y human neuroblastoma cells. Particulars: cited from earlier work.
Where [30] appears, read: exercise training combined with CrP supplementation.

T1 sequence (P10635 whole entry): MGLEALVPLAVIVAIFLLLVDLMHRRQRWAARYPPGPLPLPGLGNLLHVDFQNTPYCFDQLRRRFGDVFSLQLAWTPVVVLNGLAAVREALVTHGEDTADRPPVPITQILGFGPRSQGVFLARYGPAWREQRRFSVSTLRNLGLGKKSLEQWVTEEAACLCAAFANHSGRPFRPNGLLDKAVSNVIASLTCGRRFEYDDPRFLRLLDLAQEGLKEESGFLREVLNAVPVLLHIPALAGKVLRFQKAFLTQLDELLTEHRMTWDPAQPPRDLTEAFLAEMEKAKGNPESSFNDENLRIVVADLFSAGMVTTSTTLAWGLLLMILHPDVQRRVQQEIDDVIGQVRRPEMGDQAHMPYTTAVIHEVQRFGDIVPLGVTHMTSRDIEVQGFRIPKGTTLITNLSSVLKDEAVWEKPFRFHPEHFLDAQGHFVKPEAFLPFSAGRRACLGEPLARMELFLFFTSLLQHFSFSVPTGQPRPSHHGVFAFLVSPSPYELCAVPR

For `CC(C(=O)O)c1cccc(C(=O)c2ccccc2)c1` (racemic) [Ketoprofen], the partition into n-octanol entry in data set [1] is reported as “improves”. For the same molecule, the concentrations in plasma entry in data set [2] is “no detectable concentrations”. Moreover, the “paw edema by carrageenin” value in [3] was “markedly inhibited”.

Take `CC12CCC(CC1)C(C)(C)O2` [1,8-cineole]: in data set [4], the “Plasma concentrations of KPF with addition of the enhancer to gel ointment” value is given as “no significant enhancing effect”.

As for `N[C@H](Cc1ccccc1)C(=O)O` [D-phenylalanine], the alcohol preference result in data set [5] was “significantly reduced”. For the same molecule, in [6], the “analgesia on coadministration with peptide IKB-901” value is recorded as “enhances analgesia”. Moreover, in data set [7], the pain reaction thresholds entry is reported as “increase”. Moreover, the “plasma EKA” value in [8] is reported as “decreased”. The analgesia entry was “long-lasting, naloxone-reversible analgesia” in [9]; “naloxone reversible analgesia” in data set [10]; “elicits analgesia” in data set [11]. Also, the “antinociception induced by intra-periaqueductal gray injection of morphine” value in [12] is reported as “potentiated”. In addition, in data set [13], the “CWS analgesia and morphine analgesia” value was “decrease CWS analgesia while increasing morphine analgesia”.

In the case of `NC(Cc1ccccc1)C(=O)O` (racemic) [DL-phenylalanine (DLPA), DL-phenylalanine], in data set [14], the “pain relief in patients receiving opiates” value is “potentiate”.

`C[C@H](CS)C(=O)N1CCC[C@H]1C(=O)O` [captopril]: the “CSF EKA” value in [8] is listed as “decreased”.

For the molecule `Fc1ccc([C@@H]2CCNC[C@H]2COc2ccc3c(c2)OCO3)cc1` [paroxetine], the “steady-state plasma concentrations of (R)-methadone” value in [15] is given as “increases”.

As to `COc1ccc(C[C@H](N)C(=O)N[C@H]2[C@@H](O)[C@H](n3cnc4c(N(C)C)ncnc43)O[C@@H]2CO)cc1` [puromycin], in data set [9], the analgesia result is given as “long-lasting, naloxone-reversible analgesia”.

Consider `O=C(O)Cc1ccccc1Nc1c(Cl)cccc1Cl` [diclofenac sodium], for which the “paw edema by carrageenin” value in data set [3] is “markedly inhibited”.

`COc1ccc2c(c1)c(CC(=O)O)c(C)n2C(=O)c1ccc(Cl)cc1` [indomethacin]: the “paw edema by carrageenin” value in data set [3] is “markedly inhibited”.

Turning to `O=C(O)CCc1ccccc1` [hydrocinnamic acid], the alcohol preference result in data set [5] is reported as “significantly reduced”.

Regarding `CC(C)(C)C1CCC(=O)CC1` [4-tert-butylcyclohexanone], the “percutaneous absorption of ketoprofen and indomethacin from gel ointments” value (shortened to “percutaneous absorption”) in data set [16] was “significantly lower”.

Regarding `CN1[C@@H]2CC[C@H]1C[C@@H](OC(c1ccccc1)c1ccccc1)C2` [Cogentin], the “release of dopamine formed from 14C-phenylalanine” value (from here on “release of dopamine formed”) in data set [17] was “increased”.

For `Cl.O=C1CC[C@@]2(O)[C@H]3Cc4ccc(O)c5c4[C@@]2(CCN3CC2CC2)[C@H]1O5` [Trexan®], the “average number of days of compliance” value in [18] is 37 days.

Take `C=CCN1CC[C@]23c4c5ccc(O)c4O[C@H]2C(=O)CC[C@@]3(O)[C@H]1C5` [Naloxone]: the “analgetic effect of peptide IKB-901” value in [19] is recorded as “prevents”. In addition, in [12], the “antinociception induced by intra-periaqueductal gray injection of morphine” value is listed as “attenuated”.

As for `CCn1cc(C(=O)O)c(=O)c2ccc(Cc3ccccc3)nc21` [Amfoelic acid], the “release of dopamine formed” value in data set [17] was “net release”.

Regarding `O=C(O)CNC(=O)C(CS)Cc1ccccc1` (centres unmarked) [thiorphan], in [8], the “CSF EKA” value is reported as “decreased” and the “plasma EKA” value was “decreased”. Further, the “potency as enkephalinase inhibitor among the three drugs” value in data set [8] (plasma and CSF) was “most potent”.

In the case of `CC1CCCC(C)C1=O` (centres unmarked) [2,6-dimethyl], the “percutaneous absorption” value in data set [16] was “significantly lower”.

On to `CC(C)[C@@H]1CC[C@@H](C)C[C@H]1O` [l-menthol], for which the “Plasma concentrations of KPF with addition of the enhancer to gel ointment” value in [4] is listed as “no significant enhancing effect”.

On to Chromium Picolinate, for which the “any parameter of weight and body fat change” value in data set [20] is “no significance”. In addition, in data set [21], the lean body mass entry is listed as “an increase in”. Besides, in data set [22] (00 mcg or 400 mcg, two double-blind placebo controlled studies), the “body composition, body fat, nonfat mass” value is given as “body composition improvement, loss of body fat, gain in nonfat mass”. The “changes in Body Mass composition indicies compared with placebo” value in data set [22] (200 and 400 mcg, 72 days) is recorded as “about significant”. In addition, in data set [23] (90 days), the “weight (p < 0.001) and body fat (p < 0.004) lost compared with placebo” value is on record as “significantly more”. Moreover, in data set [23] (p < 0.001), the “reduction in body fat” value is listed as “greater reduction”. Further, the body composition entry in [23] (p < 0.004) is “improve body”. Moreover, the weight change entry in [24] (CrP supplementation alone, 63 days) is “gain, while”; in data set [24] (setting [30]), “loss”. The “insulin response to an oral glucose load” value in data set [24] (setting [30]) was “lowered”.

Take `CC(N)Cc1ccccc1` (centres unmarked) [Amphetamine]: in data set [17], the “release of dopamine formed” value is reported as “increased”.

Turning to `CN1CC[C@]23c4c5ccc(O)c4O[C@H]2[C@@H](O)C=C[C@H]3[C@H]1C5` [morphine], in data set [7], the pain reaction thresholds entry is listed as “increase”.

Take `C[C@H](NC(=O)[C@@H](CC(=O)NO)Cc1ccccc1)C(=O)O` [kelatrophan]: the intracranial self-stimulation entry in data set [25] is on record as “reduced”.

Consider `CC(C)CC(N(C)C)C1(c2ccc(Cl)cc2)CCC1` (centres unmarked) [sibutramine], for which, in [26] (higher doses), the “serotonin and dopamine concentrations in the striatal and hypothalamic brain regions” value is “increased”. Moreover, in data set [26] (low doses), the “serotonin and dopamine concentrations in dialysates” value is “no effect”.

As for `N[C@@H](Cc1c[nH]c2ccc(O)cc12)C(=O)O` [5-HTP, 5-hydroxy-1-tryptophan], in [27], the 5-HT in dialysates result is reported as “immediate increase”.

With `CC(C)(C)C1CCCCC1=O` (centres unmarked) [2-tert-butylcyclohexanone], the “percutaneous absorption” value in [16] is “markedly enhanced”.

Regarding `O=[N+]([O-])O[C@H]1CO[C@H]2[C@@H]1OC[C@H]2O[N+](=O)[O-]` [ISDN, isosorbide dinitrate], the “Visual Analog Scale pain” value in [28] is given as “declined”.

Regarding `CCCCCCCCC1CCCCC1=O` (centres unmarked) [2-n-octylcyclohexanone], the “percutaneous absorption” value in [16] is recorded as “Pronounced effects”.

Turning to `OC[C@H]1O[C@@H](OCCc2ccc(O)cc2)[C@H](O)[C@@H](O)[C@@H]1O` [Salidroside], the “H2O2-induced loss of mitochondrial membrane potential and elevation of intracellular calcium level” value in [29] (SH-SY5Y cells) is “dose-dependently restored”. In addition, in data set [29], the antioxidant property entry is “potent”.

For `CC[C@H](C)[C@H](N)C1=N[C@H](C(=O)N[C@@H](CC(C)C)C(=O)N[C@H](CCC(=O)O)C(=O)N[C@H](C(=O)N[C@H]2CCCCNC(=O)[C@H](CC(N)=O)NC(=O)[C@@H](CC(=O)O)NC(=O)[C@H](Cc3cnc[nH]3)NC(=O)[C@@H](Cc3ccccc3)NC(=O)[C@H]([C@@H](C)CC)NC(=O)[C@@H](CCCN)NC2=O)[C@@H](C)CC)CS1` [bacitracin] ({Ileψ(thiazoline)Cys}-L[dE]IK[dOrn]I[dF]H[dD]N; lactam 4-C), the analgesia result in data set [9] is “long-lasting, naloxone-reversible analgesia”.

Source of the values: US20110189161A1, “NUTRIGENOMICS METHODS AND COMPOSITIONS” (priority 2008, published 2011).
